Laboratory results as given in patent publication EP0977036A1, “METHOD FOR ASSAYING AGALACTO-IgG AND ASSAY KITS, PO[…] LECTINS, AND DNAS ENCODING THE SAME” (SEIKAGAKU CORPORATION, priority 1996, dated 1998).

System: PVL
Assay: Influence of various monosaccharides on the agalacto-IgG assay system (PVL immobilized on plate, peroxidase-labeled anti-human IgG antibody)
Type: binding, Psathyrella velutina
Settings: 50 mM monosaccharide added to agalacto-IgG standard solution (2.5 µg/ml); value without monosaccharide defined as 100%
Experimental: PVL purified in Example 1 or commercially available PVL was diluted to 20 µg/ml in 0.1 M carbonate buffer containing 10% glycerol (pH 8.5 to 9), and 50 µl of this solution (1 µg/well) was added to each well of a Nunc immunoplate (trade name; Maxisorp, Nunc), and left at 4°C for 16 hours to uniformly coat each well.
This plate was washed twice with PBS(-), and PBS(-) solution containing 3% bovine serum albumin (BSA, sold by Seikagaku Corporation) was added as a blocking agent, and left stand at room temperature for two hours to coat the portions of the wells on which PVL was not immobilized.
Then, the plate was washed three times with a washing solution (PBS(-) containing 0.05% Tween 20), and 50 µl each of standard solutions at various concentrations (0.125 to 2 µg/ml) of the agalacto-IgG purified in Preparation Example 1 was added, and left stand at 37°C for 60 minutes for reaction. As the solvent of the agalacto-IgG standard solutions, PBS(-) containing 1% BSA and 0.05% Tween 20 (referred to as "reaction diluent" hereinafter) was used. […]
After the color development, 50 µl of 1 N HCl was added to the plate to terminate the reaction, and absorbance at a wavelength of 450 nm of the solution colored by the decomposition of TMB was measured (reference wavelength: 630 nm, A450/630) by Well Reader SK601 (sold by Seikagaku Corporation). […]

Question: How did the inhibition turn out when `CC(=O)N[C@H]1C(O)O[C@H](CO)[C@@H](O)[C@@H]1O` (stereo partly shown) [GlcNAc, N-acetylglucosamine] was run?
Answer: about 50%
